Experimental data published in patent publication US9034914B2, “Pharmaceutical composition comprising rotigotine salts (acid or Na), especially for iontophoresis” (UCB Pharma GmbH, priority 2009, dated 2015).
Structures can show the parent of a compound that is named as a salt. Where two headings read alike, the source gives them in different places. Marks after values point to notes of the source that are not given here.

Tests used:
[1] = passive delivery, patch size 10 cm^2, estimated to deliver 2 mg in 24 h; cited from earlier work
[2] = Maximum (saturation) solubility in 10 mM citric buffer, HPLC assay; assay type: physicochemical; conditions: for solubility at 48 h: 10 mM citric buffer, thermodynamic from solid
Description: In order to compare the maximum solubility of pharmaceutically acceptable salts of rotigotine, e.g. rotigotine.H3PO4, with rotigotine.HCl, the solubility studies of rotigotine.salts were carried out as described by Nugroho et al. (Pharm. Res. 21 (2004), 844-855), which is incorporated herein by reference, who determined the solubility of rotigotine.HCl. Briefly, rotigotine.salt was solubilized in 10 mM citric buffer at pH 4, 5 and 6 with and without the presence of NaCl (at room temperature). Subsequent adjustment of pH in each test tube was performed by alternating adding small quantities of 1M NaOH under continuous shaking and subsequent pH measurements, until the pH of each solution had stabilized at the original buffer value. Each solution was shaken for an additional 48 hours, after which each solution was centrifuged and filtered. The concentration in each solution was determined by HPLC. Room temperature or ambient as used in the present application is to be understood to apply to a range from 18° C. to 25° C., preferred is about 20° C.
The maximum solubilities of rotigotine hydrochloride (abbreviated as Ro.HCl) and rotigotine hydrophosphate (abbreviated as rotigotine.H3PO4 or Ro.H3PO4) have been investigated as a function of pH in a number of solvents (table.1). Ro.H3PO4 was dissolved in the indicated buffer upon which the pH of the formed solution was adjusted to the target value by addition of sodium hydroxide solution. […] The drug was assayed by HPLC analysis in the filtered solution.
• Column: Merck Superspher 60 RP select B, length: 7.5 cm, column internal diameter: 4 mm, particle size: 5 μm • Mobile phase: 60% (v/v) water, 40% (v/v) acetonitrile 0.05% (v/v) methanesulfonic acid • Flow: 1.0 ml/min • Injection volume: collected fractions: 50 μl, diluted donor solutions: 4 μl • Column temperature: ambient • Detection: fluorescence, λex=276 nm, λem=302 nm

[3] = assay type: in vitro ADME, human; conditions: for steady state flux ± s.d., iontophoresis stage / Mean steady state flux ± sd: 9 h
Description: The preparation of human stratum corneum (HSC) was performed according to the method described previously (Nugroho et al., (Nugroho et al., J. Control Release (2005) 103, 393-403) which is incorporated herein by reference. Briefly, within 24 hours after surgical removal of the human skin residual subcutaneous fat was removed. Dermatomed human skin (DHS) was obtained by dermatoming the skin to a thickness of about 300 μm. In order to obtain HSC, DHS was incubated with the dermal side on Whatman paper soaked in a solution of 0.1% trypsin in 150 mM phosphate buffered saline (PBS) pH 7.4 (NaCl: 8 g·L^−1, Na2HPO4: 2.86 g·L^−1, KH2PO4: 0.2 g·L^−1, KCl: 0.19 g·L^−1) overnight at 4° C. and subsequently for 1 hour at 37° C. after which HSC was peeled off from the underlying viable epidermis and dermis. HSC was subsequently washed in a 0.1% trypsin inhibitor solution in Millipore water and several times in water and stored in a desiccator in a N2 environment.
The in vitro transport studies were done by using a 9-channel computer controlled power supply in order to provide a constant direct current (Electronics Department, Gorlaeus Laboratories, Leiden University, The Netherlands) during iontophoresis. The system was equipped with differential input channels per current source enabling on-line measurement of the electric resistance across HSC in each diffusion cell. Ag/AgCl was used as driver electrode pair. All transport experiments were carried out, using a three chamber continuous flow through cell as described elsewhere (Nugroho et al., J. Control Release (2005) 103, 393-403). The donor formulation, buffered with a 10 mM citric buffer, was applied at the anodal side. The cathodal chamber was filled with PBS pH 7.4. The acceptor phase, maintained at 32° C., was continuously perfused with PBS pH 6.2 (NaCl: 8 g·L^−1, KCl: 0.19 g·L^−1, Na2HPO4.2H2O: 0.43 g·L^−1, KH2PO4: 0.97 g·L^−1) at a flow rate of 7.0 ml·h^−1. Unless described elsewhere, the following protocol for the iontophoresis experiments was used: 6 hours of passive diffusion, followed by 9 hours of iontophoresis with a current density of 500 μA·cm^−2 and 5 hours of passive diffusion. Samples were collected every hour with an automatic fraction collector (ISCORetriever IV, Beun De Ronde B V, Abcoude, The Netherlands). The specific conditions of the individual transport studies are described below.
Prior to and at the end of a transport study the pH of donor and acceptor compartment was measured. All samples of the iontophoretic transport studies were analyzed by RP-HPLC using a Superspher® 60 RP-select B, 75 mm-4 mm column (Merck KGaA, Darmstadt, Germany). Rotigotine was detected using a scanning fluorescence detector (Waters™ 474, Millipore, Milford, Mass., USA) at excitation and emission wavelengths of 276 and 302 nm. Acetaminophen was detected using a UV detector (Dual λ Absorbance Detector 2487, Waters, Milford, USA) at a wavelength of 254 nm. Filtered and degassed mobile phase contained 60% H2O (v/v), 40% ACN (v/v) and 0.05% methanesulfonic acid (v/v). The injection volume was 50 μL and the flow rate was set to 1.0 mL·min^−1.
To calculate the steady state flux during passive and iontophoretic transport, the cumulative flux of the transport was plotted as a function of time. The steady state flux was estimated from the linear part of the slope of this plot according to the permeation lag-time method^7. All data are presented as mean±standard deviation (s.d.). When a statistical analysis was performed comparing only 2 groups, a Students t-test was used. When 3 or more groups were compared, a 1-way ANOVA statistical analysis was executed. If the overall p-value was less than 0.05, a bonferonni post-test was applied to compare different groups. For all statistical analysis a significance level of p<0.05 was used. […]

[4] = pH 5; cited from earlier work
[5] = 20 cm^2 patch containing 10 mg rotigotine hydrochloride, TTS of WO 94/07468; cited from earlier work
[6] = cited from earlier work; for Solubility: adapted from Nugroho et al.

CCCN(CCc1cccs1)[C@H]1CCc2c(O)cccc2C1 [rotigotine, (−)-5,6,7,8-tetrahydro-6-[propyl-[2-(2-thienyl)ethyl]-amino]-1-naphthalenol]
maximum plasma concentration (Cmax) [1]: 0.215 ng/mL
time of maximum plasma concentration [1]: 16 h

CCCN(CCc1cccs1)[C@H]1CCc2c(O)cccc2C1.O=P(O)(O)O [rotigotine.H3PO4, rotigotine dihydrogen phosphate]
solubility at 48 h ([2]; aqueous buffer, pH range of about 4 to 5.5, read-out: water solubility): 34 to 83 mM
solubility at 48 h ([2]; pH 4, aqueous buffer, pH 4, 68 mM NaCl, n = 2-3, read-out: Solubility): 80.1 mM
solubility at 48 h ([2]; pH 4, aqueous buffer, pH 4, no NaCl, n = 2-3, read-out: Solubility): 83.5 mM
solubility at 48 h ([2]; pH 5, aqueous buffer, pH 5, 68 mM NaCl, n = 2-3, read-out: Solubility): 43 mM
solubility at 48 h ([2]; pH 5, aqueous buffer, pH 5, no NaCl, n = 2-3, read-out: Solubility): 41.9 mM
solubility at 48 h ([2]; pH 6, aqueous buffer, pH 6, 68 mM NaCl, n = 2-3, read-out: Solubility): 14.4 mM
solubility at 48 h ([2]; pH 6, aqueous buffer, pH 6, no NaCl, n = 2-3, read-out: Solubility): 15.7 mM
solubility fold higher compared to rotigotine-HCl ([2]; pH 4): 12 fold
solubility fold higher compared to rotigotine-HCl ([2]; pH 5): 7 fold
solubility fold higher compared to rotigotine-HCl ([2]; pH 6): 2 fold
effect of addition of NaCl on solubility ([2]; selected pH values 4, 5, 6, 68 mM NaCl, 2-way ANOVA p>0.05): did not affect significantly
time to reach steady state flux after current application ([3]; citric buffer pH 5, FIG. 3): within four hours
steady state flux ± s.d., passive stage ([3]; human, 6 h, 1.24 mg/ml, pH 6): 4.1 ± 1.9 μg/cm^2/h
steady state flux ± s.d., passive stage ([3]; human, 6 h, 1.28 mg/ml, pH 5): 0.5 ± 0.2 μg/cm^2/h
steady state flux ± s.d., passive stage ([3]; human, 6 h, 1.42 mg/ml, pH 6): 3.2 ± 0.2 μg/cm^2/h
steady state flux ± s.d., passive stage ([3]; human, 6 h, 1.46 mg/ml, pH 5): 0.9 ± 0.3 μg/cm^2/h
steady state flux ± s.d., passive stage ([3]; human, 6 h, 3.11 mg/ml, pH 5): 1.0 ± 0.1 μg/cm^2/h
steady state flux ± s.d., passive stage ([3]; human, 6 h, 4.13 mg/ml, pH 6): 9.3 ± 0.9 μg/cm^2/h
steady state flux ± s.d., passive stage ([3]; human, 6 h, 4.3 mg/ml, pH 6): 12.3 ± 0.9 μg/cm^2/h
steady state flux ± s.d., passive stage ([3]; human, 6 h, 6.95 mg/ml, pH 5): 2.3 ± 0.5 μg/cm^2/h
steady state flux ± s.d., passive stage ([3]; human, 6 h, 9.88 mg/ml, pH 5.5): 7.7 ± 0.5 μg/cm^2/h
steady state flux ± s.d., passive stage ([3]; human, 6 h, 15.09 mg/ml, pH 5): 3.6 ± 0.5 μg/cm^2/h
Flux ([3]; human, 6 h, 31.3 mM, pH 5.5): 24.4±1.9 nmol·cm^−2·h^−1
maximum passive flux close to saturation in the donor phase ([3]; human, 6 h, pH 5): 10.8±1.9 nmol·cm^−2·h^−1
maximum passive flux close to saturation in the donor phase ([3]; human, 6 h, pH 6): 24.9 nmol·cm^−2·h^−1
steady state flux ± s.d., iontophoresis stage ([3]; human, 1.24 mg/ml, pH 6): 26.4 ± 1.3 μg/cm^2/h
steady state flux ± s.d., iontophoresis stage ([3]; human, 1.28 mg/ml, pH 5): 20.0 ± 4.9 μg/cm^2/h
Mean steady state flux ± sd ([3]; human, 1.4 mg/ml, pH 5): 22.1 ± 2.5 μg/cm^2/h
steady state flux ± s.d., iontophoresis stage ([3]; human, 1.42 mg/ml, pH 6): 25.1 ± 3.3 μg/cm^2/h
steady state flux ± s.d., iontophoresis stage ([3]; human, 1.46 mg/ml, pH 5): 22.1 ± 2.5 μg/cm^2/h
Mean steady state flux ± sd ([3]; human, 3 mg/ml, pH 5): 26.0 ± 2.1 μg/cm^2/h
steady state flux ± s.d., iontophoresis stage ([3]; human, 3.11 mg/ml, pH 5): 26.0 ± 2.1 μg/cm^2/h
steady state flux ± s.d., iontophoresis stage ([3]; human, 4.13 mg/ml, pH 6): 43.0 ± 2.6 μg/cm^2/h
steady state flux ± s.d., iontophoresis stage ([3]; human, 4.3 mg/ml, pH 6): 47.1 ± 1.8 μg/cm^2/h
steady state flux ± s.d., iontophoresis stage ([3]; human, 6.95 mg/ml, pH 5): 33.7 ± 4.7 μg/cm^2/h
steady state flux ± s.d., iontophoresis stage ([3]; human, 9.88 mg/ml, pH 5.5): 47.9 ± 3.1 μg/cm^2/h
steady state flux ± s.d., iontophoresis stage ([3]; human, 15.09 mg/ml, pH 5): 41.5 ± 3.4 μg/cm^2/h
decrease in steady state flux resulting from the decrease in donor concentration ([3]; human, 24 h, pH 5): 10%
increase in maximum flux compared to rotigotine.HCl ([3]; human, pH 5): 170%
maximum iontophoretic flux ([3]; human, pH 5): 135.8±12.5 nmol·cm^−2·h^−1
time to reach steady state of passive transport ([3]; no current, prior to iontophoresis): ≤ 6 h
time to reach steady state flux after current application ([3]; pH 5.5, 31.3 mM, 68 mM NaCl, stepwise increase of current density): ≤ 6 h

CCCN(CCc1cccs1)[C@H]1CCc2c(O)cccc2C1 [rotigotine.HCl, rotigotine hydrochloride]
maximum iontophoretic flux [4]: 80.2±14.4 nmol·cm^−2·h^−1
transport number [4]: 0.4%
average drug plasma levels [5]: around 0.15 ng/mL
effect of addition of NaCl on solubility ([6]; 68 mM NaCl, results by Nugroho): reduced tremendously
Solubility ([6]; pH 4, 68 mM NaCl): 6.75 µmol/mL
Solubility ([6]; pH 4, no NaCl): 24.39^a,b μmol/ml
Solubility ([6]; pH 5, 68 mM NaCl): 6.35 µmol/mL
maximum solubility ([6]; pH 5, in the presence of 0.07 molar NaCl, previous attempts): 6.3 mM
Solubility ([6]; pH 5, no NaCl, hydrochloride): 22.4 µmol/mL
Solubility ([6]; pH 5, no NaCl, listed as Rotigotine•HCl, hydrochloride): 22.45^a,b μmol/ml
Solubility ([6]; pH 6, 68 mM NaCl): 6.52 µmol/mL
Solubility ([6]; pH 6, no NaCl): 15.87^b μmol/ml
